Test results taken from US5756536A, “Microbial transformation of taxol and cephalomannine” (Purdue Research Foundation, priority 1996, dated 1998).
Values after ≈ are worked out from the molar mass of the structure shown. Read-outs that look alike come from different tables or passages of the source.

Tests used:
HT-29 = assay: In vitro antitumor cytotoxicity, MTT microculture assay, HT-29; assay type: cell-based; conditions: Homo sapiens
Experimental: (§1) The in vitro antitumor activity cytotoxicity was measured by a microculture assay using 3-(4,5-dimethylthiazol-2-yl)-2,5-diphenyl-tetrazolium bromide (MTT). This assay has an advantage over in vivo assay in that results are obtained within a week as opposed to several months. The assay was done in 96-well microtiter plates. The MTT assay is based on the transformation into a dark blue formazan product by dehydrogenase in the mitochondria of live tumor cells after exposure to drug for 6 days [M. C. Alley, D. A. Scudiero, A. Monks, M. L. Hursey, M. J. Czerwinski, D. L. Fine, B. J. Abbott, J. G. Mayo, R. H. Shoemaker and M. R. Boyd, Cancer Res., 48, 589, 1988.] Thus, only live cells are stained and can be measured at 570 nm. Antitumor cytotoxicity is reported as GI50, effect drug dose at which cell growth is retarded to 50% of control culture of tumor cells. The active compounds must have GI50 values that are less then 10^-4 M or 10 μg/ml.
(§2) Antitumor Cytotoxicity of Taxanes
(§3) Against Human Tumor Cell Lines
HT29: colon adenocarcinoma

A-549 = assay: In vitro antitumor cytotoxicity, MTT microculture assay, A-549; assay type: cell-based; conditions: Homo sapiens, A549, 144 h
Experimental: as §1, §2, §3

MCF-7 = assay: In vitro antitumor cytotoxicity, MTT microculture assay, MCF-7; assay type: cell-based; conditions: Homo sapiens, MCF7, 144 h
Experimental: as §1, §2, §3
MCF7: breast adenocarcinoma

[1] = cited from earlier work
tubulin [2] = assay: FAT tubulin polymerization assay; assay type: biochemical
[3] = system: drug-refractory ovarian cancer; conditions: in vivo; cited from earlier work
tubulin [4] = conditions: cited from earlier work
[5] = 144 h, HT-29 colon adenocarcinoma, drug exposure 6 days, MTT, 570 nm, read-out: GI50
[6] = A-549 lung carcinoma, drug exposure 6 days, MTT, 570 nm, read-out: GI50
[7] = MCF-7 breast adenocarcinoma, drug exposure 6 days, MTT, 570 nm, read-out: GI50

Row | SMILES | GI50 (HT-29; [5]) | GI50 (A-549; [6]) | GI50 (MCF-7; [7]) | effect on microtubule / tubulin polymer formation (tubulin [4]) | other results
1 | C/C=C(\C)C(=O)N[C@@H](c1ccccc1)[C@@H](O)C(=O)O[C@H]1C[C@@]2(O)[C@@H](OC(=O)c3ccccc3)[C@@H]3[C@]4(OC(C)=O)CO[C@@H]4C[C@H](O)[C@@]3(C)C(=O)[C@H](OC(C)=O)C(=C1C)C2(C)C [Caphalomannine, cephalomannine] | – | – | – | – | GI50 (HT-29; HT-29, 144 h): 0.2 ng/mL (≈ 0.24 nM); GI50 (A-549): 0.1 ng/mL (≈ 0.12 nM); GI50 (MCF-7): 0.8 ng/mL (≈ 0.962 nM)
2 | CC(=O)O[C@H]1C(=O)[C@@]2(C)[C@H]([C@H](OC(=O)c3ccccc3)[C@]3(O)C[C@H](OC(=O)[C@H](O)[C@@H](NC(=O)/C(C)=C/CO)c4ccccc4)C(C)=C1C3(C)C)[C@]1(OC(C)=O)CO[C@@H]1C[C@@H]2O [L-745,596] | 20 ng/mL (≈ 23.6 nM) | 30 ng/mL (≈ 35.4 nM) | 50 ng/mL (≈ 59 nM) | – | –
3 | CC(=O)O[C@H]1C(=O)[C@@]2(C)[C@H]([C@H](OC(=O)c3ccccc3)[C@]3(O)C[C@H](OC(=O)[C@H](O)[C@@H](NC(=O)c4ccc(O)cc4)c4ccccc4)C(C)=C1C3(C)C)[C@]1(OC(C)=O)CO[C@@H]1C[C@@H]2O [L-760,006] | 0.08 ng/mL (≈ 0.092 nM) | 0.04 ng/mL (≈ 0.046 nM) | 0.01 ng/mL (≈ 0.0115 nM) | – | –
4 | CC(=O)O[C@@]12CO[C@@H]1C[C@H](O)[C@@]1(C)C(=O)[C@H](OC(=O)CO)C3=C(C)[C@@H](OC(=O)[C@H](O)[C@@H](NC(=O)c4ccccc4)c4ccccc4)C[C@@](O)([C@@H](OC(=O)c4ccccc4)[C@H]21)C3(C)C [L-760,007, 10-hydroxyacetyl taxol] | 0.01 ng/mL (≈ 0.0115 nM) | < 0.01 ng/mL | 0.04 ng/mL (≈ 0.046 nM) | – | –
5 | CC(=O)O[C@H]1C(=O)[C@@]2(C)[C@H]([C@H](OC(=O)c3ccccc3)[C@]3(O)C[C@H](OC(=O)[C@H](O)[C@@H](NC(=O)c4ccccc4)c4ccccc4)C(C)=C1C3(C)C)[C@]1(OC(C)=O)CO[C@@H]1C[C@@H]2O [Taxol] | 0.0001 ng/mL (≈ 0.000117 nM) | 0.0004 ng/mL (≈ 0.000468 nM) | 0.002 ng/mL (≈ 0.00234 nM) | promotes formation of microtubules | toxic effects in phase 1 clinical trials [1]: did not show excessive toxic effects; IC50 in the FAT tubulin polymerization assay (tubulin [2]): 17 ng/mL (≈ 19.9 nM); activity against drug-refractory ovarian cancer [3]: active agent against drug-refractory ovarian cancer
6 | CC[C@]1(O)C[C@@H]2CN(CCc3c([nH]c4ccccc34)[C@@](C(=O)OC)(c3cc4c(cc3OC)N(C)[C@H]3[C@@](O)(C(=O)OC)[C@H](OC(C)=O)[C@]5(CC)C=CCN6CC[C@]43[C@@H]65)C2)C1 [vinblastine] | – | – | – | prevent microtubule formation | –
7 | CC[C@]1(O)C[C@H]2CN(CCc3c([nH]c4ccccc34)[C@@](C(=O)OC)(c3cc4c(cc3OC)N(C=O)[C@H]3[C@@](O)(C(=O)OC)[C@H](OC(C)=O)[C@]5(CC)C=CCN6CC[C@]43[C@@H]65)C2)C1 [vineristine] | – | – | – | prevent microtubule formation | –
